pIC50: −log10 of the molar value.
Legend:
[1] = target: T1, Cholesteryl ester transfer protein (Homo sapiens, UniProt P11597); test: Inhibition of CETP; settings: for pIC50: read-out: IC50
T1 sequence (P11597 whole entry): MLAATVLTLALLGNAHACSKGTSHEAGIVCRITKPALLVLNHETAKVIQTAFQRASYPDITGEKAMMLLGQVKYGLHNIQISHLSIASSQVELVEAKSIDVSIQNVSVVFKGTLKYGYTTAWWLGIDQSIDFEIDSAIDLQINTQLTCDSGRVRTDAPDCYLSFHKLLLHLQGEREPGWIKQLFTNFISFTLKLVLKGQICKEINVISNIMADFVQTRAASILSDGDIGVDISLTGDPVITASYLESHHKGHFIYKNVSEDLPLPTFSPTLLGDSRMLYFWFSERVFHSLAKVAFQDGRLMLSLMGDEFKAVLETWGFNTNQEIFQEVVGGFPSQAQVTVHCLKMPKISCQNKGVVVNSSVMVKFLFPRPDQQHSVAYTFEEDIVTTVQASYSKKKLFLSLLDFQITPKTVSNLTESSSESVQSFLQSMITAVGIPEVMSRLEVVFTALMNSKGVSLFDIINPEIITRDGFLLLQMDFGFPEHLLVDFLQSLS

[2] = target: Phospholipid transfer protein (Homo sapiens, UniProt P55058); test: Inhibition of PLTP; settings: for pIC50: read-out: IC50
Phospholipid transfer protein, sequence (P55058 whole entry): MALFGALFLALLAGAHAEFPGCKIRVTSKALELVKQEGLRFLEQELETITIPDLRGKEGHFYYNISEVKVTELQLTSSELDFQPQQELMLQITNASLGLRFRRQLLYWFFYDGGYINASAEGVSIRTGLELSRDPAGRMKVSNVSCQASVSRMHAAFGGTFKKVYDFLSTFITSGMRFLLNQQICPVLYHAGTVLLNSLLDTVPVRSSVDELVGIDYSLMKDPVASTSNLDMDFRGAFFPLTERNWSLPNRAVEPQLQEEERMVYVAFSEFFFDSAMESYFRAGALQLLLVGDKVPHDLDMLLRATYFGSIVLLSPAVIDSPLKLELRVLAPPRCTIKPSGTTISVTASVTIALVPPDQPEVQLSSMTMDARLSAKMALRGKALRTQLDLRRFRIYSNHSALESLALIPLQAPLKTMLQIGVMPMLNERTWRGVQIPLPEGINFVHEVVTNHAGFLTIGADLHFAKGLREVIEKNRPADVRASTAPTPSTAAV

SMILES	IC50 [1]	pIC50 [2]	IC50 [2]	pIC50 [1]
CCc1[se]c(NC(=O)c2cc(O)c(O)c(O)c2)nc1-c1ccc(O)cc1	Not Active	4.49	–	–
CCc1[se]c(NC(=O)c2ccc(OC)c(OC)c2)nc1-c1ccc(OC)cc1	Not Active	4.00	–	–
CCc1[se]c(NC(=O)c2ccc(Cl)cc2)nc1-c1ccc(O)cc1	Not Active	4.22	–	–
CCc1[se]c(NC(=O)c2cc(OC)c(OC)c(OC)c2)nc1-c1ccc(OC)cc1	Not Active	–	Not Active	–
CCc1[se]c(NC(=O)c2ccc(Cl)cc2)nc1-c1ccc(OC)cc1	Not Active	–	Not Active	–
COc1ccc(-c2nc(NC(=O)c3ccc(OC)c(OC)c3)[se]c2Cc2ccccc2)cc1	–	4.10	–	4.52
O=C(Nc1nc(-c2ccc(O)cc2)c(Cc2ccccc2)[se]1)c1ccc(O)c(O)c1	Not Active	4.46	–	–
COc1ccc(-c2nc(NC(=O)c3ccc([N+](=O)[O-])cc3)[se]c2Cc2ccccc2)cc1	Not Active	4.07	–	–
COc1ccc(-c2nc(NC(=O)c3cc(OC)c(OC)c(OC)c3)[se]c2Cc2ccccc2)cc1	–	–	Not Active	4.60
O=C(Nc1nc(-c2ccc(O)cc2)c(Cc2ccccc2)[se]1)c1cc(O)c(O)c(O)c1	Not Active	4.49	–	–
CCCCCC(=O)Nc1nc(-c2ccc(O)cc2)c(Cc2ccccc2)[se]1	–	4.22	–	4.60
O=C(Nc1nc(-c2ccccc2)c(-c2ccccc2)[se]1)c1ccc(O)c(O)c1	Not Active	5.10	–	–
O=C(Nc1nc(-c2ccccc2)c(-c2ccccc2)[se]1)c1cc(O)c(O)c(O)c1	Not Active	4.60	–	–
O=C(Nc1nc(-c2ccccc2)c(-c2ccccc2)[se]1)c1ccccc1	Not Active	–	Not Active	–
COc1cc(C(=O)Nc2nc(-c3ccccc3)c(-c3ccccc3)[se]2)cc(OC)c1OC	Not Active	–	Not Active	–
O=C(Nc1nc(-c2ccccc2)c(-c2ccccc2)[se]1)c1cc(F)c(F)c(F)c1	Not Active	–	Not Active	–
CCCCc1[se]c(NC(=O)c2cc(O)c(O)c(O)c2)nc1-c1ccc(O)cc1	Not Active	5.00	–	–
CCCCc1[se]c(NC(C)=O)nc1-c1ccc(O)cc1	Not Active	4.22	–	–
CCCCc1[se]c(NC(=O)c2ccc(Cl)cc2)nc1-c1ccc(O)cc1	Not Active	4.22	–	–
CCCCc1[se]c(NC(=O)c2cc(OC)c(OC)c(OC)c2)nc1-c1ccc(OC)cc1	Not Active	3.82	–	–
CCCCc1[se]c(NC(=O)c2ccc(OC)c(OC)c2)nc1-c1ccc(OC)cc1	Not Active	4.10	–	–

From ChEMBL document CHEMBL1221268, “Synthesis of a series of novel 2,4,5-trisubstituted selenazole compounds as potential PLTP inhibitors” (Bioorg Med Chem Lett, 2010)
